Results as given in US11452727B2, “Combination therapy for treating cancer” (Epizyme, Inc., priority 2017, dated 2022).

What was measured:
Assay in all cases: In vitro combination study with tazemetostat, cell proliferation (Cell Titer Glo)
NCI-H522 = conditions: 7 days tazemetostat pre-treatment, 6 days co-treatment with second agent
HCC827 = conditions: 7 days tazemetostat pre-treatment, 6 days co-treatment with second agent
Experimental: (§1) Initial proliferation studies were performed to determine the IC50 of tazemetostat in each cell line. For the screen, tazemetostat was used at concentrations bracketed around the IC50 value. If 50% inhibitory concentration was not reached then tazemetostat was tested starting at 10 μM.
(§2) In order to study the effect of dual combination of tazemetostat and a second agent on cell proliferation, cells in log-linear phase growth rate were pre-treated with various concentrations of tazemetostat or DMSO for 7 days in flasks, plated in 384-well plates in the absence of compounds and co-treated on day 8 with tazemetostat or DMSO and the second agent serially diluted for additional 6 days (as depicted in FIG. 1). On day 15, plates were developed for endpoint analysis using Cell Titer Glo to measure ATP content, which was used as an indicator of cell viability. DMSO concentration was kept constant throughout the assay at 0.15% v/v.
(§3) NCI-H1573 was cultured in DMEM: F12 Medium containing the following components: 0.02 mg/ml insulin, 0.01 mg/ml transferrin, 25 nM sodium selenite, 50 nM Hydrocortisone, 1 ng/ml Epidermal Growth Factor, 0.01 mM ethanolamine, 0.01 mM phosphorylethanolamine, 100 pM triiodothyronine, 0.5% (w/v) bovine serum albumin, 0.5 mM sodium pyruvate, 4.5 mM L-glutamine and 1% v/v Pen/Strep.

NCI-H1299 = conditions: 7 days tazemetostat pre-treatment, 6 days co-treatment with second agent
Experimental: as §1, §2

NCI-H2122 = conditions: 7 days tazemetostat pre-treatment, 6 days co-treatment with second agent
Experimental: as §1, §2
(§4) All cell lines were obtained from American Type Culture Collection (ATCC; Rockville, Md.). […] A427, Calu-3, Calu-6 cell lines were cultured in EMEM+10% Fetal bovine serum (FBS)+1% v/v Penicillin/Streptomycin (P/S).

NCI-H2110 = conditions: 7 days tazemetostat pre-treatment, 6 days co-treatment with second agent
Experimental: as §1, §2

NCI-H1793 = conditions: 7 days tazemetostat pre-treatment, 6 days co-treatment with second agent
Calu-6 = conditions: 7 days tazemetostat pre-treatment, 6 days co-treatment with second agent
Experimental: as §1, §2

NCI-H838 = conditions: 7 days tazemetostat pre-treatment, 6 days co-treatment with second agent
Experimental: as §1, §2, §3

NCI-H1573 = conditions: 7 days tazemetostat pre-treatment, 6 days co-treatment with second agent
Experimental: as §1, §2, §3

NCI-H460 = conditions: 7 days tazemetostat pre-treatment, 6 days co-treatment with second agent
NCI-H1993 = conditions: 7 days tazemetostat pre-treatment, 6 days co-treatment with second agent
Experimental: as §1, §2

NCI-H1703 = conditions: 7 days tazemetostat pre-treatment, 6 days co-treatment with second agent
Experimental: as §1, §2

Calu-3 = conditions: 7 days tazemetostat pre-treatment, 6 days co-treatment with second agent
Experimental: as §1, §2, §3

A549 = conditions: 7 days tazemetostat pre-treatment, 6 days co-treatment with second agent
Experimental: as §1, §2

NCI-H23 = conditions: 7 days tazemetostat pre-treatment, 6 days co-treatment with second agent
Experimental: as §1, §2, §4

NCI-H2030 = conditions: 7 days tazemetostat pre-treatment, 6 days co-treatment with second agent
Experimental: as §1, §2

NCI-H661 = conditions: 7 days tazemetostat pre-treatment, 6 days co-treatment with second agent
A427 = conditions: A427; 7 days tazemetostat pre-treatment, 6 days co-treatment with second agent
Experimental: as §1, §2, §4

| SMILES | combinatorial effect with tazemetostat (Loewe volume class) (NCI-H522) | combinatorial effect with tazemetostat (Loewe volume class) (HCC827) | combinatorial effect with tazemetostat (Loewe volume class) (NCI-H1299) | combinatorial effect with tazemetostat (Loewe volume class) (NCI-H2122) | combinatorial effect with tazemetostat (Loewe volume class) (NCI-H2110) | combinatorial effect with tazemetostat (Loewe volume class) (NCI-H1793) | combinatorial effect with tazemetostat (Loewe volume class) (Calu-6) | combinatorial effect with tazemetostat (Loewe volume class) (NCI-H838) | combinatorial effect with tazemetostat (Loewe volume class) (NCI-H1573) | combinatorial effect with tazemetostat (Loewe volume class) (NCI-H460) | combinatorial effect with tazemetostat (Loewe volume class) (NCI-H1993) | combinatorial effect with tazemetostat (Loewe volume class) (NCI-H1703) | combinatorial effect with tazemetostat (Loewe volume class) (Calu-3) | combinatorial effect with tazemetostat (Loewe volume class) (A549) | combinatorial effect with tazemetostat (Loewe volume class) (NCI-H23) | combinatorial effect with tazemetostat (Loewe volume class) (NCI-H2030) | combinatorial effect with tazemetostat (Loewe volume class) (NCI-H661) | combinatorial effect with tazemetostat (Loewe volume class) (A427) |
| --- | --- | --- | --- | --- | --- | --- | --- | --- | --- | --- | --- | --- | --- | --- | --- | --- | --- | --- |
| Nc1cc(C(F)(F)F)c(-c2cc(N3CCOCC3)nc(N3CCOCC3)n2)cn1 [BKM-120] | Add. (A value between −1 and 1 denoted “additivity”) | Add. (A value between −1 and 1 denoted “additivity”) | Add. (A value between −1 and 1 denoted “additivity”) | Add. (A value between −1 and 1 denoted “additivity”) | Add. (A value between −1 and 1 denoted “additivity”) | Syn. (Loewe volumes greater than 1 denoted “synergy”) | Add. (A value between −1 and 1 denoted “additivity”) | Syn. (Loewe volumes greater than 1 denoted “synergy”) | Add. (A value between −1 and 1 denoted “additivity”) | Add. (A value between −1 and 1 denoted “additivity”) | Syn. (Loewe volumes greater than 1 denoted “synergy”) | Add. (A value between −1 and 1 denoted “additivity”) | Add. (A value between −1 and 1 denoted “additivity”) | Add. (A value between −1 and 1 denoted “additivity”) | Syn. (Loewe volumes greater than 1 denoted “synergy”) | Add. (A value between −1 and 1 denoted “additivity”) | Syn. (Loewe volumes greater than 1 denoted “synergy”) | Syn. (Loewe volumes greater than 1 denoted “synergy”) |
| CC(=O)O[C@@]12CO[C@@H]1C[C@H](O)[C@@]1(C)C(=O)[C@H](O)C3=C(C)[C@@H](OC(=O)[C@H](O)[C@@H](NC(=O)OC(C)(C)C)c4ccccc4)C[C@@](O)([C@@H](OC(=O)c4ccccc4)[C@H]21)C3(C)C [Docetaxel, docetaxel] | Add. (A value between −1 and 1 denoted “additivity”) | Add. (A value between −1 and 1 denoted “additivity”) | Syn. (Loewe volumes greater than 1 denoted “synergy”) | Add. (A value between −1 and 1 denoted “additivity”) | Add. (A value between −1 and 1 denoted “additivity”) | Syn. (Loewe volumes greater than 1 denoted “synergy”) | Add. (A value between −1 and 1 denoted “additivity”) | Add. (A value between −1 and 1 denoted “additivity”) | Add. (A value between −1 and 1 denoted “additivity”) | Syn. (Loewe volumes greater than 1 denoted “synergy”) | Add. (A value between −1 and 1 denoted “additivity”) | Add. (A value between −1 and 1 denoted “additivity”) | Syn. (Loewe volumes greater than 1 denoted “synergy”) | Add. (A value between −1 and 1 denoted “additivity”) | Add. (A value between −1 and 1 denoted “additivity”) | Syn. (Loewe volumes greater than 1 denoted “synergy”) | Syn. (Loewe volumes greater than 1 denoted “synergy”) | Syn. (Loewe volumes greater than 1 denoted “synergy”) |
| COc1cc(N2CCC(N3CCN(C)CC3)CC2)ccc1Nc1ncc(Cl)c(Nc2ccccc2P(C)(C)=O)n1 [Brigatinib, brigatinib] | Syn. (Loewe volumes greater than 1 denoted “synergy”) | – | Add. (A value between −1 and 1 denoted “additivity”) | Add. (A value between −1 and 1 denoted “additivity”) | Syn. (Loewe volumes greater than 1 denoted “synergy”) | Syn. (Loewe volumes greater than 1 denoted “synergy”) | Add. (A value between −1 and 1 denoted “additivity”) | Syn. (Loewe volumes greater than 1 denoted “synergy”) | Syn. (Loewe volumes greater than 1 denoted “synergy”) | Syn. (Loewe volumes greater than 1 denoted “synergy”) | Syn. (Loewe volumes greater than 1 denoted “synergy”) | Syn. (Loewe volumes greater than 1 denoted “synergy”) | Syn. (Loewe volumes greater than 1 denoted “synergy”) | Syn. (Loewe volumes greater than 1 denoted “synergy”) | Syn. (Loewe volumes greater than 1 denoted “synergy”) | Syn. (Loewe volumes greater than 1 denoted “synergy”) | Add. (A value between −1 and 1 denoted “additivity”) | Syn. (Loewe volumes greater than 1 denoted “synergy”) |
| CN(C)C/C=C/C(=O)Nc1cc2c(Nc3ccc(F)c(Cl)c3)ncnc2cc1O[C@H]1CCOC1 [Afatinib, afatinib] | Syn. (Loewe volumes greater than 1 denoted “synergy”) | – | Add. (A value between −1 and 1 denoted “additivity”) | Add. (A value between −1 and 1 denoted “additivity”) | Syn. (Loewe volumes greater than 1 denoted “synergy”) | Syn. (Loewe volumes greater than 1 denoted “synergy”) | Add. (A value between −1 and 1 denoted “additivity”) | Syn. (Loewe volumes greater than 1 denoted “synergy”) | Add. (A value between −1 and 1 denoted “additivity”) | Add. (A value between −1 and 1 denoted “additivity”) | Add. (A value between −1 and 1 denoted “additivity”) | Add. (A value between −1 and 1 denoted “additivity”) | Syn. (Loewe volumes greater than 1 denoted “synergy”) | Anta. (volumes <−1 denoted “antagonism”) | Add. (A value between −1 and 1 denoted “additivity”) | Add. (A value between −1 and 1 denoted “additivity”) | Add. (A value between −1 and 1 denoted “additivity”) | Syn. (Loewe volumes greater than 1 denoted “synergy”) |
